From ChEMBL document CHEMBL2311446, “Hybrid fluorescent conjugates of COX-2 inhibitors: search for a COX-2 isozyme imaging cancer biomarker” (Bioorg Med Chem Lett, 2013)
pIC50: −log10 of the molar value.

Tested on: not listed separately
Test: Drug uptake in human HCA-7 cells overexpressing COX2 assessed as fluorescence at 10 uM after 1 hr by confocal laser scanning microscopic analysis
Type: ADME, cell-based
Details: hca-7, 1 h; call rule not given here
For `CCN(CC)c1ccc2c(-c3ccccc3C(=O)O)c3ccc(=[N+](CC)CC)cc-3oc2c1` [RHODAMINE B], the Drug uptake was “Not Active”.

Target: T1, Prostaglandin G/H synthase 1 (Ovis aries, UniProt P05979)
T1 sequence (P05979 whole entry): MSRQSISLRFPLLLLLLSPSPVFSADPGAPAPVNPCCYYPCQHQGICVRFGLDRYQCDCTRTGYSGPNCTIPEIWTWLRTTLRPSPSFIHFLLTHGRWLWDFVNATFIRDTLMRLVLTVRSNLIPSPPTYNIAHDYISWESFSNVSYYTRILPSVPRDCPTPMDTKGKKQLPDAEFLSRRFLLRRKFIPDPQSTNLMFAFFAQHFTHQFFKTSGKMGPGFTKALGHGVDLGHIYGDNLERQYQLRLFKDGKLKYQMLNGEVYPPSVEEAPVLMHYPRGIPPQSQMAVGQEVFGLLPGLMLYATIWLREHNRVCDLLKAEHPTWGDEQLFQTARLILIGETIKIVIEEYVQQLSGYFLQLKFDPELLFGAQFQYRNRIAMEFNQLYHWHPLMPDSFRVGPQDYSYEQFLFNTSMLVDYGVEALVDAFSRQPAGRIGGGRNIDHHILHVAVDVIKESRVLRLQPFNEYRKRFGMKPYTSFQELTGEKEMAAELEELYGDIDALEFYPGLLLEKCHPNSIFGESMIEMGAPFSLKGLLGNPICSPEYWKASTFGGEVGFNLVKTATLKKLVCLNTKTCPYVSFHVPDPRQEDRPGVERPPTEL
Test: Inhibition of ovine COX1
Details: not given
A pIC50 of under 4.00 was found for `CC(C)Cc1ccc(C(C)C(=O)OCCNS(=O)(=O)c2cccc3c(N(C)C)cccc23)cc1` (stereo unspecified) in this work. A pIC50 of 4.13 was found for `CC(C)Cc1ccc(C(C)C(=O)OCCn2c3ccccc3c(=O)c3ccccc32)cc1` (stereo unspecified) in this work. A pIC50 of 4.52 was found for `COc1ccc2cc([C@H](C)C(=O)OCCn3c4ccccc4c(=O)c4ccccc43)ccc2c1` in this work. A pIC50 of 4.40 was found for `CC(=O)Oc1ccccc1C(=O)OCCn1c2ccccc2c(=O)c2ccccc21` in this work. A pIC50 of 4.06 was found for `O=c1c2ccccc2n(CCOS(=O)(=O)c2ccc(C(F)(F)F)cc2)c2ccccc12` in this work. A pIC50 of 4.29 was found for `CC(C)Cc1ccc(C(C)C(=O)n2c3ccccc3c(=O)c3ccccc32)cc1` (stereo unspecified) in this work. A pIC50 of 4.74 was found for `COc1ccc2cc([C@H](C)C(=O)n3c4ccccc4c(=O)c4ccccc43)ccc2c1` in this work. A pIC50 of under 4.00 was found for `CN(C)c1cccc2c(S(=O)(=O)NCCNS(=O)(=O)c3ccc(C4=C(c5ccc(Cl)cc5)C(=O)OC4)cc3)cccc12` in this work. A pIC50 of under 4.00 was found for `Cc1ccc(-c2cc(C(F)(F)F)nn2-c2ccc(S(=O)(=O)NCCNS(=O)(=O)c3cccc4c(N(C)C)cccc34)cc2)cc1` in this work. A pIC50 of under 4.00 was found for `CCN(CC)c1ccc2c(c1)Oc1cc(N(CC)CC)ccc1C21c2ccccc2C(=O)N1CCNS(=O)(=O)c1ccc(-n2nc(C(F)(F)F)cc2-c2ccc(C)cc2)cc1` in this work.
